Here are results for 24 molecules from ChEMBL document CHEMBL2169819, “Synthesis and biological evaluation of 2-amino-3-(4-chlorobenzoyl)-4-[(4-arylpiperazin-1-yl)methyl]-5-substituted-thiophenes. effect of the 5-modification on allosteric enhancer activity at the A1 adenosine receptor” (J Med Chem, 2012).

Assay [1] has as its target T1, Adenosine receptor A1 (Homo sapiens) (UniProt P30542).
T1 sequence (whole entry): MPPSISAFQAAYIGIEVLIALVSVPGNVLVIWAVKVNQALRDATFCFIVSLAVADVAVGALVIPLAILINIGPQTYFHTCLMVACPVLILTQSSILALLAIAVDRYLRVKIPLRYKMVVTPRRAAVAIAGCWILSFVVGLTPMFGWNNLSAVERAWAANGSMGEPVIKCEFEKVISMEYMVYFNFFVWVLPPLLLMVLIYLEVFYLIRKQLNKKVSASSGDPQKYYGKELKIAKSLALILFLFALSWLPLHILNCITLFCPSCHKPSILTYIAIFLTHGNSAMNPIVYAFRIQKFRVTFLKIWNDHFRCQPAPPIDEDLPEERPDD
In words: Allosteric enhancing activity at human adenosine A1 receptor expressed in CHO cells assessed as increase in CCPA-induced [3H]DPCPX displacement at 10 uM after 90 mins relative to control. In kind it is cell-based.

Assay [2] concerns the target T1, Adenosine receptor A1 (Homo sapiens). In words: Allosteric enhancing activity at human adenosine A1 receptor expressed in CHO cells assessed as increase in [3H]-2-chloro-N6-cyclopentyladenosine Bmax at 10 uM after 90 mins relative to control. In kind it is cell-based.
The target in assay [3] is T2, Adenosine receptor A3 (Homo sapiens) (UniProt P0DMS8).
T2 sequence (whole entry): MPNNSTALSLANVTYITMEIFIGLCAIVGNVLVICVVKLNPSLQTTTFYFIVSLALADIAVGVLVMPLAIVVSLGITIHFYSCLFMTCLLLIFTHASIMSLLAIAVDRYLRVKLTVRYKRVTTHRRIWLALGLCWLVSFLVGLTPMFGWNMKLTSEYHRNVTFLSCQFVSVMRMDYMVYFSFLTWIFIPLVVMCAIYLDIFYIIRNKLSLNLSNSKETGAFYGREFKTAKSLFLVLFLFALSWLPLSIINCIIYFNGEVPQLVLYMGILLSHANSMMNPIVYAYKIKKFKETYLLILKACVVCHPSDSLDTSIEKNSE
In words: Displacement of [3H]MRE-3008-F20 from human adenosine A3 receptor expressed in CHO cells at 10 uM after 120 mins by scintillation counting. In kind it is cell-based. Background: In a radioligand displacement assay an active substance lowers the binding of a labelled ligand.

The target of assay [4] is Adenosine receptor A2a (Homo sapiens) (UniProt P29274). In words: Displacement of [3H]ZM241385 from human adenosine A2A receptor expressed in CHO cells at 10 uM after 120 mins by scintillation counting. In kind it is cell-based.
Chain of Adenosine receptor A2a (Homo sapiens) (P29274 whole entry): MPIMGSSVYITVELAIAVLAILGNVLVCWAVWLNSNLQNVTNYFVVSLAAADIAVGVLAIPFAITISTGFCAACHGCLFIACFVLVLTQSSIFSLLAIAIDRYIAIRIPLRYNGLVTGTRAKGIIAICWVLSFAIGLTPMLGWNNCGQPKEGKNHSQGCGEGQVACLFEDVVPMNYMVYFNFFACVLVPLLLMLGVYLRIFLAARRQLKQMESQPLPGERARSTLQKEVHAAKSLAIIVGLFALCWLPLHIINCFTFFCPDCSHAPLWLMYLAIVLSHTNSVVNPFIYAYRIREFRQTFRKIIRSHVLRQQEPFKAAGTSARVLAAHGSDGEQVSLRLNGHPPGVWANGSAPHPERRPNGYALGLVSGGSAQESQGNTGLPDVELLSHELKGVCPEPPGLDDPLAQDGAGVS
In assay [5] the target is T1, Adenosine receptor A1 (Homo sapiens). In words: Displacement of [3H]DPCPX from human adenosine A1 receptor expressed in CHO cells at 10 uM after 120 mins by scintillation counting. In kind it is cell-based.
For assay [6] the target is unchanged. In words: Allosteric enhancing activity at human adenosine A1 receptor expressed in CHO cells assessed as inhibition of forskolin-stimulated cAMP accumulation at 100 nM incubated for 10 mins prior to forskolin-stimulation measured after 5 mins by competition protein binding assay in presence of 2-chloro-N6-cyclopentyladenosine. In kind it is functional, cell-based. For orientation: cAMP levels reflect the balance of adenylyl cyclase and phosphodiesterase activity.

For assay [7] the target is unchanged. In words: Allosteric enhancing activity at human adenosine A1 receptor expressed in CHO cells assessed as inhibition of forskolin-stimulated cAMP accumulation at 10 uM incubated for 10 mins prior to forskolin-stimulation measured after 5 mins by competition protein binding assay. In kind it is functional, cell-based.

Active and inactive are the calls of the source. No cut-off for these calls is given here. Some results are limits rather than exact numbers.

With `Cc1sc(N)c(C(=O)c2ccc(Cl)cc2)c1CN1CCN(c2ccc(Cl)cc2)CC1`, the Ratio Ki in assay [1] is 4.2. Besides, the fold change (FC) in assay [2] is 4.7. The inhibition – broadly, the relative decrease from the control value, in per cent – in assay [3] was less than 12%; in assay [4], less than 12%; in assay [5], less than 12%; in assay [6], 40%; in assay [7], 44%.
In the case of `Nc1sc(-c2ccccc2)c(CN2CCN(c3cccc(C(F)(F)F)c3)CC2)c1C(=O)c1ccc(Cl)cc1`, the Ratio Ki in assay [1] was found to be 7.1. Also, the fold change (FC) in assay [2] was 7.5. The inhibition in assay [3] was less than 12%; in assay [4] it was less than 12%; in assay [5] it was less than 12%; in assay [6], 60%; in assay [7] it was 63%.
`Cc1sc(N)c(C(=O)c2ccc(Cl)cc2)c1CN1CCN(c2ccc(I)cc2)CC1`: the Ratio Ki in assay [1] was found to be 4.8. In addition, the fold change (FC) in assay [2] stood at 5.4. The inhibition in assay [3] was less than 12%; in assay [4], less than 12%; in assay [5] it was less than 12%; in assay [6], 45%; in assay [7], 54%.
Consider `Cc1sc(N)c(C(=O)c2ccc(Cl)cc2)c1CN1CCN(c2ccc(Cl)c(C(F)(F)F)c2)CC1`, for which the Ratio Ki in assay [1] was 4.6. Moreover, in assay [2], the fold change (FC) amounted to 5.1. Also, the inhibition is less than 12% in assay [3]; less than 12% in assay [4]; less than 12% in assay [5]; 48% in assay [6]; 52% in assay [7].
Regarding `Nc1sc(-c2ccc(Cl)cc2)c(CN2CCN(Cc3ccccc3)CC2)c1C(=O)c1ccc(Cl)cc1`, the Ratio Ki in assay [1] is 6.8. For the same molecule, the fold change (FC) in assay [2] stood at 7.7. Moreover, the inhibition in assay [3] is less than 12%; in assay [4] it was less than 12%; in assay [5], less than 12%; in assay [6] it was 63%; in assay [7], 65%.
In the case of `Nc1sc(-c2ccccc2)c(CN2CCN(c3ccccc3C(F)(F)F)CC2)c1C(=O)c1ccc(Cl)cc1`, in assay [1], the Ratio Ki is 7.6. Also, the fold change (FC) in assay [2] amounted to 8.2. Also, the inhibition in assay [3] is less than 12%; in assay [4], less than 12%; in assay [5], less than 12%; in assay [6], 66%; in assay [7], 62%.
For the molecule `Nc1sc(-c2ccccc2)c(CN2CCN(c3ccc(F)cc3)CC2)c1C(=O)c1ccc(Cl)cc1`, in assay [1], the Ratio Ki was 9.4. For the same molecule, the fold change (FC) in assay [2] is 11.1. The inhibition in assay [3] was less than 12%; in assay [4], less than 12%; in assay [5], less than 12%; in assay [6], 71%; in assay [7] it was 77%.
Take `Cc1ccc(N2CCN(Cc3c(C)sc(N)c3C(=O)c3ccc(Cl)cc3)CC2)cc1`: the Ratio Ki in assay [1] was 5.9. The fold change (FC) in assay [2] came to 6.6. The inhibition in assay [3] was less than 12%; in assay [4] it was less than 12%; in assay [5] it was less than 12%; in assay [6], 58%; in assay [7] it was 61%.
Turning to `Nc1sc(-c2ccc(Cl)cc2)c(CN2CCN(c3ccc(Cl)c(C(F)(F)F)c3)CC2)c1C(=O)c1ccc(Cl)cc1`, the Ratio Ki in assay [1] worked out at 8. Also, in assay [2], the fold change (FC) stood at 10.1. For the same molecule, the inhibition is less than 12% in assay [3]; less than 12% in assay [4]; less than 12% in assay [5]; 70% in assay [6]; 76% in assay [7].
Regarding `CCc1sc(N)c(C(=O)c2ccc(Cl)cc2)c1CN1CCN(c2ccc(Cl)cc2)CC1`, the Ratio Ki in assay [1] is 6. The fold change (FC) in assay [2] is 6.5. Besides, the inhibition was less than 12% in assay [3]; less than 12% in assay [4]; less than 12% in assay [5]; 53% in assay [6]; 60% in assay [7].
On to `Nc1sc(-c2ccc(F)cc2)c(CN2CCN(c3ccc(F)cc3)CC2)c1C(=O)c1ccc(Cl)cc1`, for which the Ratio Ki in assay [1] was found to be 9.5. Also, the fold change (FC) in assay [2] was determined as 11.7. Also, the inhibition in assay [3] was less than 12%; in assay [4], less than 12%; in assay [5], less than 12%; in assay [6] it was 77%; in assay [7], 82%.
For the molecule `Nc1scc(CN2CCN(c3ccc(OC(F)(F)F)cc3)CC2)c1C(=O)c1ccc(Cl)cc1`, the Ratio Ki in assay [1] was 5.3. In assay [2], the fold change (FC) was determined as 6.8.
`Cc1sc(N)c(C(=O)c2ccc(Cl)cc2)c1CN1CCN(c2ccc([N+](=O)[O-])cc2)CC1`: the Ratio Ki in assay [1] came out at 1.1. Further, the fold change (FC) in assay [2] worked out at 1.3. Further, the inhibition in assay [3] is less than 12%; in assay [4], less than 12%; in assay [5] it was less than 12%; in assay [6] it was 13%; in assay [7] it was 9%.
Turning to `Cc1sc(N)c(C(=O)c2ccc(Cl)cc2)c1CN1CCN(c2ccc(C(F)(F)F)cc2)CC1`, in assay [1], the Ratio Ki worked out at 6.8. Moreover, in assay [2], the fold change (FC) was found to be 7.6. For the same molecule, the inhibition was less than 12% in assay [3]; less than 12% in assay [4]; less than 12% in assay [5]; 61% in assay [6]; 60% in assay [7].
In the case of `Nc1sc(-c2ccccc2)c(CN2CCN(c3ccc(OC(F)(F)F)cc3)CC2)c1C(=O)c1ccc(Cl)cc1`, the Ratio Ki in assay [1] turned out to be 8.4. Further, the fold change (FC) in assay [2] is 9.4. Further, the inhibition in assay [3] is less than 12%; in assay [4] it was less than 12%; in assay [5] it was less than 12%; in assay [6], 69%; in assay [7] it was 67%.
With `Cc1sc(N)c(C(=O)c2cccc(C(F)(F)F)c2)c1C`, the Ratio Ki in assay [1] worked out at 1.6. For the same molecule, the fold change (FC) in assay [2] was 1.3. Further, the inhibition entry in assay [4] and in assay [5] was “inactive” throughout. The inhibition in assay [6] came to 22%.
On to `Nc1sc(Br)c(CN2CCN(c3ccc(F)cc3)CC2)c1C(=O)c1ccc(Cl)cc1`, for which the Ratio Ki in assay [1] was 4.1. In addition, in assay [2], the fold change (FC) stood at 4.4. Also, the inhibition in assay [3] was less than 12%; in assay [4], less than 12%; in assay [5], less than 12%; in assay [6], 41%; in assay [7] it was 46%.
As for `Nc1scc(CN2CCN(c3ccc(Cl)cc3)CC2)c1C(=O)c1ccc(Cl)cc1`, the Ratio Ki in assay [1] was determined as 5.6. The fold change (FC) in assay [2] amounted to 7.
On to `CCc1sc(N)c(C(=O)c2ccc(Cl)cc2)c1CN1CCN(c2ccc(F)cc2)CC1`, for which the Ratio Ki in assay [1] came out at 3.8. In addition, the fold change (FC) in assay [2] came out at 6.7. Besides, the inhibition is less than 12% in assay [3]; less than 12% in assay [4]; less than 12% in assay [5]; 55% in assay [6]; 63% in assay [7].
For `Nc1sc(-c2ccc(Cl)cc2)c(CN2CCN(c3ccccc3)CC2)c1C(=O)c1ccc(Cl)cc1`, in assay [1], the Ratio Ki came to 9.5. In assay [2], the fold change (FC) stood at 10.2. Moreover, the inhibition in assay [3] is less than 12%; in assay [4], less than 12%; in assay [5], less than 12%; in assay [6], 72%; in assay [7], 75%.
With `Nc1sc(-c2ccc(Cl)cc2)c(CN2CCN(c3cccc(C(F)(F)F)c3)CC2)c1C(=O)c1ccc(Cl)cc1`, the Ratio Ki in assay [1] came out at 13. In addition, in assay [2], the fold change (FC) was determined as 11.8. Moreover, the inhibition in assay [3] is less than 12%; in assay [4], less than 12%; in assay [5], less than 12%; in assay [6], 78%; in assay [7], 81%.
As to `Nc1sc(Br)c(CN2CCN(c3ccccc3)CC2)c1C(=O)c1ccc(Cl)cc1`, the Ratio Ki in assay [1] was 4.5. Further, the fold change (FC) in assay [2] was found to be 4.7. The inhibition was less than 12% in assay [3]; less than 12% in assay [4]; less than 12% in assay [5]; 43% in assay [6]; 48% in assay [7].
With `Nc1sc(-c2ccccc2)c(CN2CCN(c3ccc(C(F)(F)F)cc3)CC2)c1C(=O)c1ccc(Cl)cc1`, the Ratio Ki in assay [1] was determined as 8.9. The fold change (FC) in assay [2] was 10.7. For the same molecule, the inhibition was less than 12% in assay [3]; less than 12% in assay [4]; less than 12% in assay [5]; 73% in assay [6]; 72% in assay [7].
With `Nc1scc(CN2CCN(c3ccc(C(F)(F)F)cc3)CC2)c1C(=O)c1ccc(Cl)cc1`, the Ratio Ki in assay [1] amounted to 6.3. In assay [2], the fold change (FC) was 7.7.
